{
  "source": "ChEMBL document CHEMBL1147576",
  "about": "“Synthesis and evaluation of S-4-(3-thienyl)phenyl-alpha-methylacetic acid” (Bioorg Med Chem Lett, 2004)",
  "data": [
    {"molecular_target": "T1, Prostaglandin G/H synthase 1 (Ovis aries, UniProt P05979)", "T1 sequence (P05979 whole entry)": "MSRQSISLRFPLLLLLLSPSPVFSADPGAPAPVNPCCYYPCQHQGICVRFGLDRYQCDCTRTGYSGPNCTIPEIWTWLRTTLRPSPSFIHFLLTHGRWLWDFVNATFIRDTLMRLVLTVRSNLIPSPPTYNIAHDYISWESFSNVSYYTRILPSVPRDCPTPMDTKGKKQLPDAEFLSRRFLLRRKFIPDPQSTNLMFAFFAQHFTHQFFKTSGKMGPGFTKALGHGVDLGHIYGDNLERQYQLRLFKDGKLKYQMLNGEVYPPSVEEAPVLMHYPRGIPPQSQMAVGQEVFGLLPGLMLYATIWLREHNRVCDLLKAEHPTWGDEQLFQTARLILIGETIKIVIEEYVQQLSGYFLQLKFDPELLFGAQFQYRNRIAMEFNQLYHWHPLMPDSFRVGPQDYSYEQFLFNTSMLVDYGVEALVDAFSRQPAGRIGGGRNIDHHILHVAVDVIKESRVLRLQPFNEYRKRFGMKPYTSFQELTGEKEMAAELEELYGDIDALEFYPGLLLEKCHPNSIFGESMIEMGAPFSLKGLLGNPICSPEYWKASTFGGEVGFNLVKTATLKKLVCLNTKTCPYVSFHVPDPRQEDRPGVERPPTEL", "experiment": "In vitro inhibitory concentration against ram seminal vesicle prostaglandin G/H synthase 1", "assay_type": "tissue-based", "units": {"IC50": "µM"}, "values": [
      {"compound": "C[C@H](C(=O)O)c1ccc(-c2ccsc2)cc1", "IC50": 45.2}
    ]},
    {"tested_on": "Rattus norvegicus", "experiment": "Effective dose for Anti-inflammatory activity was determined by carrageenan induced rat hind paw edema model", "assay_type": "functional", "units": {"ED50": "mg/kg"}, "values": [
      {"compound": "COc1ccc2cc(C(C)C(=O)O)ccc2c1", "note": "(configuration not stated)", "ED50": 2.35},
      {"compound": "C[C@H](C(=O)O)c1ccc(-c2ccsc2)cc1", "ED50": 1.85},
      {"compound": "CC(C)Cc1ccc([C@H](C)C(=O)O)cc1", "note": "[DEXIBUPROFEN]", "ED50": 7.08},
      {"compound": "CC(C(=O)O)c1ccc(-c2ccsc2)cc1", "note": "(configuration not stated) [ATLIPROFEN]", "ED50": 5.74},
      {"compound": "COc1ccc2cc([C@H](C)C(=O)O)ccc2c1", "note": "[NAPROXEN]", "ED50": 0.99},
      {"compound": "CC(C)Cc1ccc(C(C)C(=O)O)cc1", "note": "(configuration not stated) [IBUPROFEN]", "ED50": 33.2}
    ]}
  ]
}
